According to patent US20250101041A1, “POSITIVE ALLOSTERIC MODULATORS OF THE MUSCARINIC ACETYLCHOLINE RECEPTOR M4” (Vanderbilt University, priority 2022, published 2025):

Molecular target: T1, human mAChR M4 (Homo sapiens, UniProt P08173)
T1 construct: expressed in transfected cells; host or cells: CHO-K1 (American Type Culture Collection), stably expressing hM4 and Gqi5
T1 sequence (P08173 1-479): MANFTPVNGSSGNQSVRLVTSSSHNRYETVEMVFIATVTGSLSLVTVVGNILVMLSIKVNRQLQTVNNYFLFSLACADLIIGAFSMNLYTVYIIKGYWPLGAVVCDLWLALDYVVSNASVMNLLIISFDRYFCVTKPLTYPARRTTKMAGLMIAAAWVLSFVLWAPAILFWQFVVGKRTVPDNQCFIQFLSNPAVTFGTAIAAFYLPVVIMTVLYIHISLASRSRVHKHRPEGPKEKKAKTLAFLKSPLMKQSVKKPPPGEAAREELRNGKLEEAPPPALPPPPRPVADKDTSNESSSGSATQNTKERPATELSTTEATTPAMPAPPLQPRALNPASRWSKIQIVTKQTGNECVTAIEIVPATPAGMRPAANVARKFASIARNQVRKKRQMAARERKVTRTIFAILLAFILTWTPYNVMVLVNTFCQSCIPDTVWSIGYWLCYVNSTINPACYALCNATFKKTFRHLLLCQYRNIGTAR
Assay: mAChR M4 cell-based functional assay: calcium mobilization (Fluo-4, FDSS), potentiation of EC20 acetylcholine response in hM4-Gqi5 CHO-K1 cells
Conditions: human M4; for Emax at 30 µM: CHO-K1, % ACh maximum at 30 μM; for EC50: potentiation of EC20 acetylcholine response, calcium mobilization
Outline: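 Readout is the fluorescence-ratio rise at 1 Hz on FDSS, with PAM activity taken as concentration-dependent enhancement of the EC20 acetylcholine response, fitted four-parameter for EC50/Emax. hM4-Gqi5 CHO-K1 cells carried Fluo-4 AM dye; test compounds (11 points, 1:3) preceded EC20 acetylcholine additions at 144 s and 230 s.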

Structure (SMILES)	Emax at 30 µM [%]	EC50 [nM]
Cc1c(N2CCc3ncc(-c4cnn(-c5ccccn5)c4)cc3C2)nn2c(=O)cc(C(F)F)nc2c1C [Compound 1-163, 2-(difluoromethyl)-8,9-dimethyl-7-(3-(1-(pyridin-2-yl)-1H-pyrazol-4-yl)-7,8-dihydro-1,6-naphthyridin-6(5H)-yl)-4H-pyrimido[1,2-b]pyridazin-4-one]	71	1020
Cc1ccc(-c2cnc3c(c2)CN(c2nn4c(=O)cc(C(F)F)nc4c(C)c2C)CC3)c(C)c1 [Compound 1-164, 2-(difluoromethyl)-7-(3-(2,4-dimethylphenyl)-7,8-dihydro-1,6-naphthyridin-6(5H)-yl)-8,9-dimethyl-4H-pyrimido[1,2-b]pyridazin-4-one]	69	640
Cc1c(N2CCc3ncc(-c4cnn(-c5ccccc5F)c4)cc3C2)nn2c(=O)cc(C(F)F)nc2c1C [Compound 1-165, 2-(difluoromethyl)-7-(3-(1-(2-fluorophenyl)-1H-pyrazol-4-yl)-7,8-dihydro-1,6-naphthyridin-6(5H)-yl)-8,9-dimethyl-4H-pyrimido[1,2-b]pyridazin-4-one]	47	–
CCn1cc(-c2cnc3c(c2)CN(c2nn4c(=O)cc(C(F)F)nc4c(C)c2C)CC3)cn1 [Compound 1-166, 2-(difluoromethyl)-7-(3-(1-ethyl-1H-pyrazol-4-yl)-7,8-dihydro-1,6-naphthyridin-6(5H)-yl)-8,9-dimethyl-4H-pyrimido[1,2-b]pyridazin-4-one]	86	283
COc1cncc(-c2cnc3c(c2)CN(c2nn4c(=O)cc(C(F)F)nc4c(C)c2C)CC3)c1 [Compound 1-167, 2-(difluoromethyl)-7-(3-(5-methoxypyridin-3-yl)-7,8-dihydro-1,6-naphthyridin-6(5H)-yl)-8,9-dimethyl-4H-pyrimido[1,2-b]pyridazin-4-one]	80	353
COc1ncc(-c2cnc3c(c2)CN(c2nn4c(=O)cc(C(F)F)nc4c(C)c2C)CC3)cc1Cl [Compound 1-168, 7-(3-(5-chloro-6-methoxypyridin-3-yl)-7,8-dihydro-1,6-naphthyridin-6(5H)-yl)-2-(difluoromethyl)-8,9-dimethyl-4H-pyrimido[1,2-b]pyridazin-4-one]	72	2310
Cc1ccc(-c2cnc3c(c2)CN(c2nn4c(=O)cc(C(F)F)nc4c(C)c2C)CC3)cc1 [Compound 1-169, 2-(difluoromethyl)-8,9-dimethyl-7-(3-(p-tolyl)-7,8-dihydro-1,6-naphthyridin-6(5H)-yl)-4H-pyrimido[1,2-b]pyridazin-4-one]	89	883
COc1ccc(-c2cnc3c(c2)CN(c2nn4c(=O)cc(C(F)F)nc4c(C)c2C)CC3)cn1 [Compound 1-170, 2-(difluoromethyl)-7-(3-(6-methoxypyridin-3-yl)-7,8-dihydro-1,6-naphthyridin-6(5H)-yl)-8,9-dimethyl-4H-pyrimido[1,2-b]pyridazin-4-one]	95	185
Cc1ccc(F)cc1-c1cnc2c(c1)CN(c1nn3c(=O)cc(C(F)F)nc3c(C)c1C)CC2 [Compound 1-171, 2-(difluoromethyl)-7-(3-(5-fluoro-2-methylphenyl)-7,8-dihydro-1,6-naphthyridin-6(5H)-yl)-8,9-dimethyl-4H-pyrimido[1,2-b]pyridazin-4-one]	91	429
Cc1c(N2CCc3ncc(-c4cnn(C(F)F)c4)cc3C2)nn2c(=O)cc(C(F)F)nc2c1C [Compound 1-172, 2-(difluoromethyl)-7-(3-(1-(difluoromethyl)-1H-pyrazol-4-yl)-7,8-dihydro-1,6-naphthyridin-6(5H)-yl)-8,9-dimethyl-4H-pyrimido[1,2-b]pyridazin-4-one]	85	114
Cc1c(N2CCc3ncc(-c4cnn(CCN5CCOCC5)c4)cc3C2)nn2c(=O)cc(C(F)F)nc2c1C [Compound 1-173, 2-(difluoromethyl)-8,9-dimethyl-7-(3-(1-(2-morpholinoethyl)-1H-pyrazol-4-yl)-7,8-dihydro-1,6-naphthyridin-6(5H)-yl)-4H-pyrimido[1,2-b]pyridazin-4-one]	81	338
Cc1c(N2CCc3ncc(-c4ccc(Cl)nc4Cl)cc3C2)nn2c(=O)cc(C(F)F)nc2c1C [Compound 1-174, 7-(3-(2,6-dichloropyridin-3-yl)-7,8-dihydro-1,6-naphthyridin-6(5H)-yl)-2-(difluoromethyl)-8,9-dimethyl-4H-pyrimido[1,2-b]pyridazin-4-one]	82	450
Cc1cc(=O)n2nc(N3CCc4ncc(-c5cnn(-c6ccccn6)c5)cc4C3)c(C)c(C)c2n1 [Compound 1-175, 2,8,9-trimethyl-7-(3-(1-(pyridin-2-yl)-1H-pyrazol-4-yl)-7,8-dihydro-1,6-naphthyridin-6(5H)-yl)-4H-pyrimido[1,2-b]pyridazin-4-one]	61	4660
Cc1cc(=O)n2nc(N3CCc4ncc(-c5ccnn5C5COC5)cc4C3)c(C)c(C)c2n1 [Compound 1-176, 2,8,9-trimethyl-7-(3-(1-(oxetan-3-yl)-1H-pyrazol-5-yl)-7,8-dihydro-1,6-naphthyridin-6(5H)-yl)-4H-pyrimido[1,2-b]pyridazin-4-one]	74	4840
Cc1cc(=O)n2nc(N3CCc4ncc(-c5cnn(CCN(C)C)c5)cc4C3)c(C)c(C)c2n1 [Compound 1-177, 7-(3-(1-(2-(dimethylamino)ethyl)-1H-pyrazol-4-yl)-7,8-dihydro-1,6-naphthyridin-6(5H)-yl)-2,8,9-trimethyl-4H-pyrimido[1,2-b]pyridazin-4-one]	84	1420
Cc1cc(=O)n2nc(N3CCc4ncc(-c5cnn(CCN6CCOCC6)c5)cc4C3)c(C)c(C)c2n1 [Compound 1-178, 2,8,9-trimethyl-7-(3-(1-(2-morpholinoethyl)-1H-pyrazol-4-yl)-7,8-dihydro-1,6-naphthyridin-6(5H)-yl)-4H-pyrimido[1,2-b]pyridazin-4-one]	74	2510
Cc1cc(=O)n2nc(N3CCc4ncc(-c5cnn(C6COC6)c5)cc4C3)c(C)c(C)c2n1 [Compound 1-179, 2,8,9-trimethyl-7-(3-(1-(oxetan-3-yl)-1H-pyrazol-4-yl)-7,8-dihydro-1,6-naphthyridin-6(5H)-yl)-4H-pyrimido[1,2-b]pyridazin-4-one]	85	805
Cc1cc(=O)n2nc(N3CCc4ncc(-c5cnn(-c6ccccc6F)c5)cc4C3)c(C)c(C)c2n1 [Compound 1-180, 7-(3-(1-(2-fluorophenyl)-1H-pyrazol-4-yl)-7,8-dihydro-1,6-naphthyridin-6(5H)-yl)-2,8,9-trimethyl-4H-pyrimido[1,2-b]pyridazin-4-one]	63	2470
Cc1cc(=O)n2nc(N3CCc4ncc(-c5cnn6ccccc56)cc4C3)c(C)c(C)c2n1 [Compound 1-181, 2,8,9-trimethyl-7-(3-(pyrazolo[1,5-a]pyridin-3-yl)-7,8-dihydro-1,6-naphthyridin-6(5H)-yl)-4H-pyrimido[1,2-b]pyridazin-4-one]	95	648
